Source: US20040058952A1, “Urease inhibitors” (Otsuka Pharmaceutical Co., Ltd., priority 2000, published 2004)

Tests used:
[1] = molecular target: Helicobacter pylori urease (Helicobacter pylori, UniProt P69996); experiment: Urease activity inhibition test (13C-urea, 13C-NMR), Helicobacter pylori urease; format: biochemical
Protocol: (§1) Using ^13C-urea as a substrate, the amount of urea, which is eliminated due to the urease enzyme reaction, was measured with a lapse of time by means of ^13C-NMR. On the basis of an elimination rate (M/sec) of ^13C-urea in the absence of the urease inhibitor sample, the case where the elimination rate in the presence of the sample is reduced to half was calculated as IC50 of the sample.
(Preparation of sample) In a NMR tube having a diameter of 5 mm, Helicobacter pylori urease (manufactured by OTSUKA PHARMACEUTICAL CO., 1.6 units) dissolved in 500 μof a mixed solvent (pH 7) of 400 μl of 0.1M phosphate buffer (pH 7) and 100 μl of DMSO was added and each test compound (urease inhibitor sample) dissolved in 100 μl of ethanol was added, followed by standing at 20° C. for 30 minutes and further standing on an ice bath for 10 minutes. […]
(§2) Each sample was inserted into a probe and the enzyme reaction was conducted at the reaction temperature (temperature of the probe) of 20° C. and the measurement was conducted every 20 seconds after 1 to 4 minutes have passed since the beginning of the reaction, while the measurement was conducted every one minute after 4 or more minutes have passed, using a ^13C-NMR apparatus. Consequently, an elimination rate (M/sec) of a signal (165 ppm) of ^13C-urea as the substrate was determined.

jack bean urease = molecular target: T1, jack bean urease (Canavalia ensiformis, UniProt P07374); experiment: Urease activity inhibition test (13C-urea, 13C-NMR), jack bean urease; format: biochemical
T1 construct: purchased
Protocol: as §1, with “sample. […]” for “sample.”
as §2, with “determined. […]” for “determined.”
Using the respective compounds obtained in Reference Examples 2 to 5 as the test compound, the same test (using the jack bean urease) was repeated and IC50 of each test compounds was determined, thus calculating a relative urease inhibitory activity value relative to a standard (1) for the same value of BIT. […]

[2] = tested on: Helicobacter pylori ATCC 43504; experiment: Anti-Helicobacter pylori activity test (dilution method); format: cell-based; settings: H. pylori ATCC 43504, 3 days culture, OD660nm; compared with metronidazole (MN), FIG. 3
Protocol: An anti-Helicobacter pylori activity test of the compound as an active ingredient of the present invention was conducted in the following procedure using a dilution method. Helicobacter pylori ATCC 43504 strains were innoculated in a medium in petri dish (Brucella agar (BECTON […]), containing 7% FBS) and then cultured in a mixed carbonic acid gas-nitrogen gas culture medium (10% CO2, 5% O2, 85% N2, 37° C.) for 2 days. The strains were recovered, cultured similarly in a liquid medium using a Brucella broth (BECTON […]) for one day and then diluted with the same medium to control […] to 0.1. The test compound was dissolved in 50% ethanol-saline to prepare a 1 mg/ml solution and the solution was 1- to 2048-fold diluted by 12 steps with the same medium to prepare dilution series. In each well of cell culture plate (20 μl/well), each step wisely diluted solution (20 μl) of the test compound was charged and a Brucella medium (containing 7% FBS) (160 μl) was added, and then a pylori strain solution (20 μl) was finally added.

Helicobacter pylori urease, sequence (P14916 whole entry): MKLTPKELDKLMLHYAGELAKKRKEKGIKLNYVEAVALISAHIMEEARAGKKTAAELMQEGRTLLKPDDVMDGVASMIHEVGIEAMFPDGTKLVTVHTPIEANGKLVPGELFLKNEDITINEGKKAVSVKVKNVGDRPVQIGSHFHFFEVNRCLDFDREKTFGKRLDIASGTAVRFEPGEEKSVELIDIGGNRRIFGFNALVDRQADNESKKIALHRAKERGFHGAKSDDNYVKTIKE
Helicobacter pylori urease, sequence (P69996 whole entry): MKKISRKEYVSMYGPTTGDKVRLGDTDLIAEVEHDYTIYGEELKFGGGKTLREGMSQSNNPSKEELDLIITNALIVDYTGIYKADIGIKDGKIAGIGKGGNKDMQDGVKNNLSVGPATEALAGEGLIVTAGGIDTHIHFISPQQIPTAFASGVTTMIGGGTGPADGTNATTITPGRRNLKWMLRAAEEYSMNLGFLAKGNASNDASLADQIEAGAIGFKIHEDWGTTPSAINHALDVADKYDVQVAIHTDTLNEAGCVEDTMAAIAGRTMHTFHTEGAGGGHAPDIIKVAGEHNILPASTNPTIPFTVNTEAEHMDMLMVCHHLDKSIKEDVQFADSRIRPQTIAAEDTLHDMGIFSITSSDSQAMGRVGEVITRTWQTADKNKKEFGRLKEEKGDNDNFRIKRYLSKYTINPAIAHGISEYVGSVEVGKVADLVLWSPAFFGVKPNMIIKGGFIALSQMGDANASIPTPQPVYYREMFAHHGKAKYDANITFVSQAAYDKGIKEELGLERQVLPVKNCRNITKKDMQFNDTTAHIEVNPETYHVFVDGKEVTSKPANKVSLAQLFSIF
T1 sequence (P07374 whole entry, looked up): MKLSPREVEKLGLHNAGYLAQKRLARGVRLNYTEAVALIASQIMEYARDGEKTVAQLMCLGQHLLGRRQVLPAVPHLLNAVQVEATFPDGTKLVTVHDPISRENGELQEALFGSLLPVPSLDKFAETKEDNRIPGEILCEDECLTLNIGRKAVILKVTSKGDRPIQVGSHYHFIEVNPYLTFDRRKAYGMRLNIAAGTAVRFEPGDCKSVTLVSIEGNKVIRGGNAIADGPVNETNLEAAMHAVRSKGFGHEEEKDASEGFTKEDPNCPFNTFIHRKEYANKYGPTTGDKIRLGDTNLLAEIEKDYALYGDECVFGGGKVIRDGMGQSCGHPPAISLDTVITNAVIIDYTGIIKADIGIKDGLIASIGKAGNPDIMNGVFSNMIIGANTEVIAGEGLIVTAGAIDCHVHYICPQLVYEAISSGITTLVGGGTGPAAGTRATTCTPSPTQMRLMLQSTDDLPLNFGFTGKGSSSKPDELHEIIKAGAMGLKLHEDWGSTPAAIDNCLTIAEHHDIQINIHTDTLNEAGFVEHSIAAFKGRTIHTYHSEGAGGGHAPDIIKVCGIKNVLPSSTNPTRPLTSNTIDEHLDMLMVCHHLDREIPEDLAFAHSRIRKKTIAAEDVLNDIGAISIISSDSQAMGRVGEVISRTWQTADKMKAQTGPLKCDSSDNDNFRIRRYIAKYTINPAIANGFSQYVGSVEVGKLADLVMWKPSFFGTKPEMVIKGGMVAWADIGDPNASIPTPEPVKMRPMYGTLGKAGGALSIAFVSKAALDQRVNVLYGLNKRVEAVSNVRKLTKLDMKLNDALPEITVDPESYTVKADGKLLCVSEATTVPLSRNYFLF

With `O=c1[nH]sc2ccccc12` [BIT, 1,2-benzoisothiazol-3 (2H)-one] the IC50 [1] was 55 µM, the IC50 (jack bean urease) was 132 µM and the “anti-Helicobacter pylori activity (eradication rate)” value [2] was “stronger than that of MN”.
